Measurements taken from ChEMBL document CHEMBL4507303, “Data for DCP probe TP-004” (2021).

Assays:
[1] = target: Mitogen-activated protein kinase kinase kinase 6 (Homo sapiens) (UniProt O95382); details: Compound concentration 1000.0 nM
[2] = system: Tyrosine-protein kinase ABL1 (Homo sapiens), P00519 [T315I]; details: Compound concentration 1000.0 nM
[3] = target: Mitogen-activated protein kinase kinase kinase 19 (Homo sapiens) (UniProt Q56UN5); details: Compound concentration 1000.0 nM
[4] = target: Death-associated protein kinase 3 (Homo sapiens) (UniProt O43293); details: Compound concentration 1000.0 nM
[5] = system: Epidermal growth factor receptor (Homo sapiens), P00533 [G719C]; details: Compound concentration 1000.0 nM
[6] = target: Serine/threonine-protein kinase TNNI3K (Homo sapiens) (UniProt Q59H18); details: Compound concentration 1000.0 nM
Chain of Serine/threonine-protein kinase TNNI3K (Homo sapiens) (Q59H18 whole entry): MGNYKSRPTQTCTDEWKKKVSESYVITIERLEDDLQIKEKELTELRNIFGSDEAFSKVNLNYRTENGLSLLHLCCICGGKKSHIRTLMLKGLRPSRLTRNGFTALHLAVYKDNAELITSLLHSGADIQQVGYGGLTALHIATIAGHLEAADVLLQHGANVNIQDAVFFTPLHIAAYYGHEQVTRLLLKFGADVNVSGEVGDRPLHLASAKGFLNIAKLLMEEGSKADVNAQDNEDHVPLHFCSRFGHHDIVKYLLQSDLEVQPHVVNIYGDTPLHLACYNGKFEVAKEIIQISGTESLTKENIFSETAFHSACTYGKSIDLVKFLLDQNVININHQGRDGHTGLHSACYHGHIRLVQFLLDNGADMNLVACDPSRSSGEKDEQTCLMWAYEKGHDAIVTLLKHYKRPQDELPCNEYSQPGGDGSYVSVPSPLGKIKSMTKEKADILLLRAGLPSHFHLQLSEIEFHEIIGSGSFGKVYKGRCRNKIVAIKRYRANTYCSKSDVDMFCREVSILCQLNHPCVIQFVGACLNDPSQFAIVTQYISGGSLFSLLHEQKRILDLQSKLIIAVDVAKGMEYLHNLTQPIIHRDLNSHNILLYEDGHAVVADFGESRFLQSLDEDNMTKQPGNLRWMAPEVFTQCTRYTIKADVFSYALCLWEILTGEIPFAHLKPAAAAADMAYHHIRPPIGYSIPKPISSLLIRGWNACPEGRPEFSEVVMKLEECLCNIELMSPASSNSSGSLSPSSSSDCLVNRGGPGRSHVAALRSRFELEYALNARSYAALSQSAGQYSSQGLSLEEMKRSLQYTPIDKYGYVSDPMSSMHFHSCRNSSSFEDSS

[7] = target: Casein kinase II subunit alpha (Homo sapiens) (UniProt P68400); details: Compound concentration 1000.0 nM
[8] = target: Ankyrin repeat and protein kinase domain-containing protein 1 (Homo sapiens) (UniProt Q8NFD2); details: Compound concentration 1000.0 nM
Chain of Ankyrin repeat and protein kinase domain-containing protein 1 (Homo sapiens) (Q8NFD2 whole entry, the tested form may be a part): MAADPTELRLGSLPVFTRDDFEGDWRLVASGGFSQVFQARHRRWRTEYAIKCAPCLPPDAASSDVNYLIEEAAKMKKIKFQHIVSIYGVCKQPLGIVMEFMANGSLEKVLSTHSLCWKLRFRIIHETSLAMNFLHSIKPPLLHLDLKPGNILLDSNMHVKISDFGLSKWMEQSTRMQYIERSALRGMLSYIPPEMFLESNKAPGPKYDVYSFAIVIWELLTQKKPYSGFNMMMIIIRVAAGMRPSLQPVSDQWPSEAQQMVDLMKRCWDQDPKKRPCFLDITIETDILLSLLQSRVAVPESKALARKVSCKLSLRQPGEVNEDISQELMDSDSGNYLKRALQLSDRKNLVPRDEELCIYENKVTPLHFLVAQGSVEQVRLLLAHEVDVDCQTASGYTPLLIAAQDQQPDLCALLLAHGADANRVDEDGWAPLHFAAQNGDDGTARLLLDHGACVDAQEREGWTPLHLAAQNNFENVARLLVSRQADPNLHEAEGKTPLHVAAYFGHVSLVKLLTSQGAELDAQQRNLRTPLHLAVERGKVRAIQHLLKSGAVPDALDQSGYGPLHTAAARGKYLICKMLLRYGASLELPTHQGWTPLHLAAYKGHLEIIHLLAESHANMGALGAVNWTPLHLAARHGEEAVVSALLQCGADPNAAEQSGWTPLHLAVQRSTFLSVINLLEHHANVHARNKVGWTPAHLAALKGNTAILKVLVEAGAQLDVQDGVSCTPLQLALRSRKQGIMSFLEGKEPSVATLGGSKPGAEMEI

[9] = system: Tyrosine-protein kinase ABL1 (Homo sapiens), P00519 [M351T]; details: Compound concentration 1000.0 nM
[10] = target: Ephrin type-A receptor 6 (Homo sapiens) (UniProt Q9UF33); details: Compound concentration 1000.0 nM
[11] = target: Sodium-dependent serotonin transporter (Homo sapiens) (UniProt P31645); details: Compound concentration 10.0 uM
Chain of Sodium-dependent serotonin transporter (Homo sapiens) (P31645 whole entry, looked up): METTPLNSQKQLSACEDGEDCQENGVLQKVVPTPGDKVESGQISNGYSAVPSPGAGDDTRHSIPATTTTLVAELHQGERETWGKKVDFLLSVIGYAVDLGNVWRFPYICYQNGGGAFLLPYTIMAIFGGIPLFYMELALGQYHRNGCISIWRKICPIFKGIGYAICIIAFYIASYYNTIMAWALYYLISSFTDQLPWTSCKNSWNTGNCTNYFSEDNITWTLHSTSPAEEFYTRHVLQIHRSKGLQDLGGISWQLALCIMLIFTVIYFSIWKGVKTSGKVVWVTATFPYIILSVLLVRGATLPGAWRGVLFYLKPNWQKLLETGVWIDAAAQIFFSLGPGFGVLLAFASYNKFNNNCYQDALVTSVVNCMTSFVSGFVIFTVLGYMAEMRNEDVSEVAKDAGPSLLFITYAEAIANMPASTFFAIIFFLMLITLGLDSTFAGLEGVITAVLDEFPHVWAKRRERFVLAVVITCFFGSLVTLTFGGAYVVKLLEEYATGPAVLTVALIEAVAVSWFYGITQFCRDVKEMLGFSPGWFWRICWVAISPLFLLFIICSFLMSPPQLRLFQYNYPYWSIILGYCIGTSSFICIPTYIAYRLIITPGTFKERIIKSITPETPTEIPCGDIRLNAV

[12] = target: Serine/threonine-protein kinase SIK2 (Homo sapiens) (UniProt Q9H0K1); details: Compound concentration 1000.0 nM
[13] = target: MAP kinase-interacting serine/threonine-protein kinase 2 (Homo sapiens) (UniProt Q9HBH9); details: Compound concentration 1000.0 nM
[14] = system: Mast/stem cell growth factor receptor Kit (Homo sapiens), P10721 [V559D,V654A]; details: Compound concentration 1000.0 nM
Chain of Mast/stem cell growth factor receptor Kit (Homo sapiens), P10721 [V559D,V654A] (P10721 whole entry V559D/V654A): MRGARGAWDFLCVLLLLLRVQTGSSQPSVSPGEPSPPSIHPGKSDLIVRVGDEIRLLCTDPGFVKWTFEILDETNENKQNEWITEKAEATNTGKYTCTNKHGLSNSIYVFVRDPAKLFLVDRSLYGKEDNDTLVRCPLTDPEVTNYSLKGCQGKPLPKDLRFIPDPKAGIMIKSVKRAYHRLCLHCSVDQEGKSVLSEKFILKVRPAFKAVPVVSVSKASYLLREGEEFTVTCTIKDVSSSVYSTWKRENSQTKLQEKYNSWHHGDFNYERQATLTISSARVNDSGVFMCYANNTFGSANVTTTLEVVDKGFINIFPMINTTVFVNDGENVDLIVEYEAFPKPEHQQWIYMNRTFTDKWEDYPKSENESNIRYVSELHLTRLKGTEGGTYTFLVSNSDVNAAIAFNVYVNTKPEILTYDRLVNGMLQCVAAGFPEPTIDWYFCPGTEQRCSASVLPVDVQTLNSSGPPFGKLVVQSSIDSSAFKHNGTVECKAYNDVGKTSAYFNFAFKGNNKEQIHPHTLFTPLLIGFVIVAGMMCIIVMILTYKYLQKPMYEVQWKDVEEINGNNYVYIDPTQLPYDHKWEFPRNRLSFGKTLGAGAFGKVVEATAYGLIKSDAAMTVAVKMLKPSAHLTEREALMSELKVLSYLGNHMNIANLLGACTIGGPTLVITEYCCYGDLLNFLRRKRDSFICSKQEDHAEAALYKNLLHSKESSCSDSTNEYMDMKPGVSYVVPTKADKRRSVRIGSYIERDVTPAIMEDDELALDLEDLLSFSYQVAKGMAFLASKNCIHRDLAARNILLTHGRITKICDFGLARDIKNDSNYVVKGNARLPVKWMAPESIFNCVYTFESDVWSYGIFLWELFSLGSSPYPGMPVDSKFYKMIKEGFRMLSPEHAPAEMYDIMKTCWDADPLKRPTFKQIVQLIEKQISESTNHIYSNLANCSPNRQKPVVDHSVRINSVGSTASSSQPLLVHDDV

[15] = target: Homeodomain-interacting protein kinase 2 (Homo sapiens) (UniProt Q9H2X6); details: Compound concentration 1000.0 nM
[16] = target: Cytoplasmic tyrosine-protein kinase BMX (Homo sapiens) (UniProt P51813); details: Compound concentration 1000.0 nM
[17] = target: Serine/threonine-protein kinase N2 (Homo sapiens) (UniProt Q16513); details: Compound concentration 1000.0 nM
[18] = target: Cyclin-dependent kinase 2 (Homo sapiens) (UniProt P24941); details: Compound concentration 1000.0 nM
[19] = target: Interleukin-1 receptor-associated kinase 4 (Homo sapiens) (UniProt Q9NWZ3); details: Compound concentration 1000.0 nM
[20] = target: Fibroblast growth factor receptor 4 (Homo sapiens) (UniProt P22455); details: Compound concentration 1000.0 nM
[21] = target: Serine/threonine-protein kinase RIO2 (Homo sapiens) (UniProt Q9BVS4); details: Compound concentration 1000.0 nM
[22] = target: cGMP-dependent protein kinase 1 (Homo sapiens) (UniProt Q13976); details: Compound concentration 1000.0 nM
[23] = target: Insulin-like growth factor 1 receptor (Homo sapiens) (UniProt P08069); details: Compound concentration 1000.0 nM
[24] = system: Proto-oncogene tyrosine-protein kinase receptor Ret (Homo sapiens), P07949 [M918T]; details: Compound concentration 1000.0 nM
[25] = target: Mitogen-activated protein kinase kinase kinase 1 (Homo sapiens) (UniProt Q13233); details: Compound concentration 1000.0 nM
[26] = target: Serine/threonine-protein kinase NLK (Homo sapiens) (UniProt Q9UBE8); details: Compound concentration 1000.0 nM
[27] = target: Tyrosine-protein kinase SYK (Homo sapiens) (UniProt P43405); details: Compound concentration 1000.0 nM
[28] = target: NT-3 growth factor receptor (Homo sapiens) (UniProt Q16288); details: Compound concentration 1000.0 nM
[29] = target: Serine/threonine-protein kinase TBK1 (Homo sapiens) (UniProt Q9UHD2); details: Compound concentration 1000.0 nM
[30] = target: Serine/threonine-protein kinase pim-2 (Homo sapiens) (UniProt Q9P1W9); details: Compound concentration 1000.0 nM
[31] = target: Mast/stem cell growth factor receptor Kit (Homo sapiens) (UniProt P10721); details: Compound concentration 1000.0 nM
Chain of Mast/stem cell growth factor receptor Kit (Homo sapiens) (P10721 whole entry): as the sequence (P10721 whole entry V559D/V654A) above, with D559V, A654V counted along it

[32] = target: Mitogen-activated protein kinase kinase kinase kinase 1 (Homo sapiens) (UniProt Q92918); details: Compound concentration 1000.0 nM
[33] = target: Testis-specific serine/threonine-protein kinase 1 (Homo sapiens) (UniProt Q9BXA7); details: Compound concentration 1000.0 nM
Chain of Testis-specific serine/threonine-protein kinase 1 (Homo sapiens) (Q9BXA7 whole entry): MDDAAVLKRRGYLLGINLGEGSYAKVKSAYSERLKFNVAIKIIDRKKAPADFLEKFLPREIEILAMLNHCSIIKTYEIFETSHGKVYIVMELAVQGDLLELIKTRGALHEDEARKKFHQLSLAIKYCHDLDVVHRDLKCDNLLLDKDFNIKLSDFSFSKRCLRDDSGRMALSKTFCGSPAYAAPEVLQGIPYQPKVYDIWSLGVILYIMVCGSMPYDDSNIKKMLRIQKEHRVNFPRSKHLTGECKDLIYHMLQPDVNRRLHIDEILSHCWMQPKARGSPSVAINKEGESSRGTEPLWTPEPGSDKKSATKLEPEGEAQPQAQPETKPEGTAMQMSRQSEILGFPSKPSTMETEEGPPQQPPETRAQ

[34] = target: Dual specificity mitogen-activated protein kinase kinase 5 (Homo sapiens) (UniProt Q13163); details: Compound concentration 1000.0 nM
[35] = target: NUAK family SNF1-like kinase 1 (Homo sapiens) (UniProt O60285); details: Compound concentration 1000.0 nM
[36] = target: Serine/threonine-protein kinase STK11 (Homo sapiens) (UniProt Q15831); details: Compound concentration 1000.0 nM
[37] = target: Mitogen-activated protein kinase 12 (Homo sapiens) (UniProt P53778); details: Compound concentration 1000.0 nM
Chain of Mitogen-activated protein kinase 12 (Homo sapiens) (P53778 whole entry): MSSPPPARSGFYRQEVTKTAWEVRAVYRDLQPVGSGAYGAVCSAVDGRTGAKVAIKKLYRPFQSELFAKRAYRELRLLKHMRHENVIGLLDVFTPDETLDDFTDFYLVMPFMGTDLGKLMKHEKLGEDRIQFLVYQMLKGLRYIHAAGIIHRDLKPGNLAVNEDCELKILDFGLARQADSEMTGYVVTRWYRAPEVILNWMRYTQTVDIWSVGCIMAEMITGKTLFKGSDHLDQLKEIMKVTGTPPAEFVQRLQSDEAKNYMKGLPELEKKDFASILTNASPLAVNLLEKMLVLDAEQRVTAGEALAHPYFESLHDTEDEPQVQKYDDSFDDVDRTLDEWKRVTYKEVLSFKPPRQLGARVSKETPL

[38] = system: Tyrosine-protein kinase ABL1 (Homo sapiens), P00519 [F317L]; details: Compound concentration 1000.0 nM
[39] = target: Casein kinase II subunit alpha' (Homo sapiens) (UniProt P19784); details: Compound concentration 1000.0 nM
[40] = target: 5-hydroxytryptamine receptor 7 (Homo sapiens) (UniProt P34969); details: Compound concentration 10.0 uM
[41] = target: Calcium/calmodulin-dependent protein kinase kinase 1 (Homo sapiens) (UniProt Q8N5S9); details: Compound concentration 1000.0 nM
[42] = target: Focal adhesion kinase 1 (Homo sapiens) (UniProt Q05397); details: Compound concentration 1000.0 nM
Chain of Focal adhesion kinase 1 (Homo sapiens) (Q05397 2-1052 limits assumed): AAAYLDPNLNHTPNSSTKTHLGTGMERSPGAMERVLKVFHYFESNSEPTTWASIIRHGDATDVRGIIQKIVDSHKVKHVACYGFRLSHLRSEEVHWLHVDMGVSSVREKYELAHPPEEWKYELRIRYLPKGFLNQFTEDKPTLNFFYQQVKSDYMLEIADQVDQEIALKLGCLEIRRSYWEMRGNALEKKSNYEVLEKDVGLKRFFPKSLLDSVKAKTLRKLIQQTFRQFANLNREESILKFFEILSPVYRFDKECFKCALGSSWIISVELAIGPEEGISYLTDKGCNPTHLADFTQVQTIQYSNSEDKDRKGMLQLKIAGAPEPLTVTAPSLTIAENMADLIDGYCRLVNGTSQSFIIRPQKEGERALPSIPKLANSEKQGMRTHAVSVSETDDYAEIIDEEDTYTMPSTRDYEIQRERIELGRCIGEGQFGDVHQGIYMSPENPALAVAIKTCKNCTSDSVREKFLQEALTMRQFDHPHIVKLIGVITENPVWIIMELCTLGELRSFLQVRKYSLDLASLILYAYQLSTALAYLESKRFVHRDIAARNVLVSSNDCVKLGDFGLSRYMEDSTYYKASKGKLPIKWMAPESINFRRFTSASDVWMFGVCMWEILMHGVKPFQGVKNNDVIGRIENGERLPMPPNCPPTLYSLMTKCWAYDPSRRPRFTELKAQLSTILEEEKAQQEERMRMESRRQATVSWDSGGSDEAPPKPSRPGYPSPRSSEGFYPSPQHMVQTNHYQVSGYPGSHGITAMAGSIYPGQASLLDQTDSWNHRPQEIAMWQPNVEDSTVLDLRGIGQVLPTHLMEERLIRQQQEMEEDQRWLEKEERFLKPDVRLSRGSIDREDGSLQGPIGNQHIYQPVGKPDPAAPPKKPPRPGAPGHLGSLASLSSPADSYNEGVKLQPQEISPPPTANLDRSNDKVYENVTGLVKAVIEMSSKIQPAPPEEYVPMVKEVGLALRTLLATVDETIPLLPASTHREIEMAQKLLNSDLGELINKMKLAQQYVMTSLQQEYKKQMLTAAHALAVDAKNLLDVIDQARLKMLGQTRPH

[43] = target: Serine/threonine-protein kinase PRP4 homolog (Homo sapiens) (UniProt Q13523); details: Compound concentration 1000.0 nM
[44] = target: Peripheral plasma membrane protein CASK (Homo sapiens) (UniProt O14936); details: Compound concentration 1000.0 nM
[45] = target: Cyclin-dependent kinase 11A (Homo sapiens) (UniProt Q9UQ88); details: Compound concentration 1000.0 nM

Cc1nc(N2CC[C@@H](O)C2)ncc1-c1cc(C(F)(F)F)cc2[nH]ncc12 [TP-004]
inactive: residual activity [1] 68% | residual activity [2] 78% | residual activity [3] 67% | residual activity [4] 100% | residual activity [5] 100% | residual activity [6] 87% | residual activity [7] 85% | residual activity [8] 85% | residual activity [9] 72% | residual activity [10] 100% | inhibition [11] -6.93% | residual activity [12] 100% | residual activity [13] 76% | residual activity [14] 94% | residual activity [15] 74% | residual activity [16] 100% | residual activity [17] 72% | residual activity [18] 94% | residual activity [19] 94% | residual activity [20] 90% | residual activity [21] 100% | residual activity [22] 77% | residual activity [23] 100% | residual activity [24] 100% | residual activity [25] 60% | residual activity [26] 100% | residual activity [27] 100% | residual activity [28] 66% | residual activity [29] 82% | residual activity [30] 89% | residual activity [31] 89% | residual activity [32] 100% | residual activity [33] 98% | residual activity [34] 68% | residual activity [35] 83% | residual activity [36] 100% | residual activity [37] 100% | residual activity [38] 100% | residual activity [39] 91% | inhibition [40] 10.8% | residual activity [41] 100% | residual activity [42] 86% | residual activity [43] 100% | residual activity [44] 95% | residual activity [45] 100%
